According to paper PMC4894406, “Results of an abbreviated phase-II study with the Akt Inhibitor MK-2206 in Patients with Advanced Biliary Cancer” (Scientific Reports, 2015):
Where “and” joins values, the source holds several entries; their conditions need not be identical. Equal values may be shown once. Read-outs that look alike come from different tables or passages of the source.

How the values were obtained:
P-glycoprotein = conditions: cited from earlier work
[1] = Plasma pharmacokinetics in biliary cancer patients (LC-MS/MS, non-compartmental); type: in vivo, human; conditions: for AUC(0-t): read-out: AUC0–96; for Vd/F: read-out: Vz/F; for k el: read-out: λz (converted)
Procedure: Plasma samples were collected from all patients at Week 1 of Cycle 1 immediately prior to dose administration, and at 30 min, 1, 2, 3, 4, 6, 8, 24, 48, and 96 hours after dose administration. The 24, 48 and 96-hour samples were collected on the mornings of days 2, 3 and 5 within 4 hours of the target time (e.g. 24 ± 4, 48 ± 4, and 96 ± 4 hours). Plasma samples were also collected immediately prior to the oral intake of MK-2206 tablet(s) on days 8, 15 and 29 (i.e. Cycle 2, Day 1) so that trough pre-dose levels of MK-2206 could be determined in the following studies. The plasma levels of MK-2206 were evaluated using quantitative liquid chromatography/tandem mass spectrometry (LC-MS/MS) at Merck & Co. Non-compartmental PK parameters were determined for MK-2206 using Phoenix WinNonlin (v6.3, Pharsight, Mountain View, CA).

[2] = parameters: method as in Fouladi et al. [23]; conditions: children with refractory malignancies, 9 subjects, 120 mg/m^2 weekly oral, first dose; ref Fouladi et al. [23]; cited from earlier work
CYP2D6 = test system: CYP2D6; parameters: method as in PMID 24387695; conditions: read-out: IC50 CYP2D6 inhibition; cited from earlier work
[3] = OSU Trial, 7 subjects (subject 1004 excluded), BSA-adjusted
[4] = OSU Trial, 7 subjects (subject 1004 excluded), first dose 200 mg
[5] = human, plasma, po, 200 mg, subject 1001, first dose 200 mg oral
[6] = human, plasma, po, 200 mg, subject 1002, first dose 200 mg oral
[7] = human, plasma, po, 200 mg, subject 1003, first dose 200 mg oral
[8] = human, plasma, po, 200 mg, subject 1004, first dose 200 mg oral
[9] = human, plasma, po, 200 mg, subject 1005, first dose 200 mg oral
[10] = human, plasma, po, 200 mg, subject 1007, first dose 200 mg oral
[11] = human, plasma, po, 200 mg, subject 2006, first dose 200 mg oral
[12] = human, plasma, po, 200 mg, subject 2008, first dose 200 mg oral

In the case of `NC1(c2ccc(-c3nc4ccn5c(=O)[nH]nc5c4cc3-c3ccccc3)cc2)CCC1` [MK-2206], the P-glycoprotein substrate (P-glycoprotein) is given as “substrate of P-glycoprotein”, the “CL/F/m^2 (BSA-adjusted CL/F)” value [1, 3] is given as 16.5 +/− 7.2 L/hr/m^2 and 16.5±7.2 L/hr/m^2 and the “Vz/F/m^2” value [1, 3] is given as 1521±931 L/m^2. For the same compound, the “Cmax (average)” value [1, 4] was 114 ng/mL, the “Tmax (average)” value [1, 4] was 6.0 ± 1.6 h and the concentration at 48 h ([1]; human, plasma, oral, 200 mg, 6 of 8 patients, read-out: 48-hr plasma concentration) was > 22.7 ng/mL and > 56.8 nM. For the same compound, the half-life ([1]; human, plasma, oral, 200 mg, OSU Trial, 7 subjects (subject 1004 excluded), first dose 200 mg, read-out: Half life (average) (converted)) was 63.5 ± 21.2 h, the concentration at 8 day ([1]; human, plasma, oral, 200 mg, day 8, 200 mg weekly, read-out: trough pre-dose average plasma concentration) was 14.7 ng/mL and the concentration at 15 day ([1]; human, plasma, oral, 200 mg, day 15, 200 mg weekly, read-out: trough pre-dose average plasma concentration) was 14.4 ng/mL. It also gave a concentration at 48 h ([1]; human, plasma, oral, 200 mg, one of the other two patients, read-out: Plasma concentration measured at 48 hours) of 18.5 ng/mL, a concentration at 48 h ([1]; human, plasma, oral, 200 mg, subject 1004, read-out: Plasma concentration measured at 48 hours) of 5.06 ng/mL and a Tmax ([1]; human, plasma, po, 200 mg, eight patients, first dose 200 mg oral, read-out: Tmax, range) of 4 to 8 h. For the same compound, the half-life ([1]; human, plasma, po, 200 mg, eight patients, first dose 200 mg oral, read-out: median terminal elimination half-life (converted)) was 58 h, the Tmax ([1]; human, plasma, po, 200 mg, eight patients, first dose 200 mg oral, read-out: median time to peak observed plasma concentrations (Tmax)) was 6 h and the half-life ([1]; human, plasma, po, 200 mg, eight patients, first dose 200 mg oral, read-out: terminal elimination half-life, range) was 34 to 88 h. The Cmax [1, 5] was 106 ng/mL, the AUC(0-t) [1, 5] was 3320 ng·h/mL and the half-life ([1]; human, plasma, po, 200 mg, subject 1001, first dose 200 mg oral, read-out: Half-life (converted)) was 53.3 h. The Tmax ([1]; human, plasma, po, 200 mg, subject 1001, first dose 200 mg oral, read-out: Tmax) was 4 h, the Vd/F [1, 5] was 3270 L and the k el [1, 5] was 3.61e-06 s⁻¹. It also gave a Cmax [1, 6] of 111 ng/mL, an AUC(0-t) [1, 6] of 6850 ng·h/mL and a half-life ([1]; human, plasma, po, 200 mg, subject 1002, first dose 200 mg oral, read-out: Half-life (converted)) of 80.4 h. For the same compound, the Tmax ([1]; human, plasma, po, 200 mg, subject 1002, first dose 200 mg oral, read-out: Tmax) was 6 h, the Vd/F [1, 6] was 1870 L and the k el [1, 6] was 2.5e-06 s⁻¹. The Cmax [1, 7] was 176 ng/mL, the AUC(0-t) [1, 7] was 8450 ng·h/mL and the half-life ([1]; human, plasma, po, 200 mg, subject 1003, first dose 200 mg oral, read-out: Half-life (converted)) was 33.8 h. It also gave a Tmax ([1]; human, plasma, po, 200 mg, subject 1003, first dose 200 mg oral, read-out: Tmax) of 6 h, a Vd/F [1, 7] of 989 L and a k el [1, 7] of 5.83e-06 s⁻¹. For the same compound, the Cmax [1, 8] was 11.1 ng/mL, the AUC(0-t) [1, 8] was 531 ng·h/mL and the half-life ([1]; human, plasma, po, 200 mg, subject 1004, first dose 200 mg oral, read-out: Half-life (converted)) was 62.5 h. The Tmax ([1]; human, plasma, po, 200 mg, subject 1004, first dose 200 mg oral, read-out: Tmax) was 8 h, the Vd/F [1, 8] was 22200 L and the k el [1, 8] was 3.06e-06 s⁻¹. It also gave a Cmax [1, 9] of 108 ng/mL, an AUC(0-t) [1, 9] of 6020 ng·h/mL and a half-life ([1]; human, plasma, po, 200 mg, subject 1005, first dose 200 mg oral, read-out: Half-life (converted)) of 86.9 h. It also gave a Tmax ([1]; human, plasma, po, 200 mg, subject 1005, first dose 200 mg oral, read-out: Tmax) of 8 h, a Vd/F [1, 9] of 2210 L and a k el [1, 9] of 2.22e-06 s⁻¹. The Cmax [1, 10] was 90.1 ng/mL, the AUC(0-t) [1, 10] was 3730 ng·h/mL and the half-life ([1]; human, plasma, po, 200 mg, subject 1007, first dose 200 mg oral, read-out: Half-life (converted)) was 50.2 h. For the same compound, the Tmax ([1]; human, plasma, po, 200 mg, subject 1007, first dose 200 mg oral, read-out: Tmax) was 6 h, the Vd/F [1, 10] was 2880 L and the k el [1, 10] was 3.89e-06 s⁻¹. The Cmax [1, 11] was 144 ng/mL, the AUC(0-t) [1, 11] was 5850 ng·h/mL and the half-life ([1]; human, plasma, po, 200 mg, subject 2006, first dose 200 mg oral, read-out: Half-life (converted)) was 52.4 h. It also gave a Tmax ([1]; human, plasma, po, 200 mg, subject 2006, first dose 200 mg oral, read-out: Tmax) of 4 h, a Vd/F [1, 11] of 1870 L and a k el [1, 11] of 3.61e-06 s⁻¹. The Cmax [1, 12] was 44.7 ng/mL, the AUC(0-t) [1, 12] was 2060 ng·h/mL and the half-life ([1]; human, plasma, po, 200 mg, subject 2008, first dose 200 mg oral, read-out: Half-life (converted)) was 87.5 h. For the same compound, the Tmax ([1]; human, plasma, po, 200 mg, subject 2008, first dose 200 mg oral, read-out: Tmax) was 8 h, the Vd/F [1, 12] was 6560 L and the k el [1, 12] was 2.22e-06 s⁻¹. It also gave a CL/F ([1]; subject 1001, first dose 200 mg oral) of 42.5 L/h, a CL/F ([1]; subject 1002, first dose 200 mg oral) of 16.1 L/h and a CL/F ([1]; subject 1003, first dose 200 mg oral) of 20.3 L/h. The CL/F ([1]; subject 1004, first dose 200 mg oral) was 245 L/h, the “Cmax and AUC of subject 1004 compared to others” value ([1]; subject 1004 relative to the other seven subjects) was 6% to 25 and the CL/F ([1]; subject 1005, first dose 200 mg oral) was 17.6 L/h. For the same compound, the CL/F ([1]; subject 1007, first dose 200 mg oral) was 39.8 L/h, the CL/F ([1]; subject 2006, first dose 200 mg oral) was 24.8 L/h and the CL/F ([1]; subject 2008, first dose 200 mg oral) was 52.0 L/h. The “accumulation with the current regimen” value ([1]; trough levels days 8 and 15, 200 mg weekly) was “no significant accumulation”, the “CL/F/m^2 (BSA-adjusted CL/F)” value [2] was 18.0 +/− 18.8 L/hr/m^2 and 18.0±18.8 L/hr/m^2 and the Cmax [2] was 171 ng/mL. For the same compound, the Half life [2] was 44.2 ± 23.3 h, the Tmax [2] was 5.1 ± 1.6 h and the “Vz/F/m^2” value [2] was 1100±1020 L/m^2. The IC50 (CYP2D6) was greater than 35 µM.
